This passage reports Activity and IC50 results from ChEMBL document CHEMBL4118158, “Lactones from the pericarps of Litsea japonica and their anti-inflammatory activities” (Bioorg Med Chem Lett, 2018).

In data set [1] the test system is RAW264.7. The data set can be described thus: Cytotoxicity against mouse RAW264.7 cells at 30 uM after 24 hrs in absence of LPS by MTT assay. The class given is cell-based. The note with it: raw264.7, 24 h.
Data set [2] relates to RAW264.7. The data set is described as follows: Anti-inflammatory activity in mouse RAW264.7 cells assessed as inhibition of LPS-induced nitric oxide production after 24 hrs by Griess method. Format: functional, cell-based. The note with it: RAW264.7, 24 h.
Data set [3] has as its system RAW264.7. The data set can be described thus: Cytotoxicity against mouse RAW264.7 cells at 30 uM after 24 hrs in presence of LPS by MTT assay. The note with it: raw264.7, 24 h. Format: cell-based.
Data set [4] concerns RAW264.7. The data set is described as follows: Anti-inflammatory activity in mouse RAW264.7 cells assessed as reduction in iNOS protein expression preincubated for 30 mins before LPS stimulation for 24 hrs by Western blot analysis. Format: functional, cell-based.
In data set [5] the test system is RAW264.7. The data set is described as follows: Anti-inflammatory activity in mouse RAW264.7 cells assessed as reduction in COX2 protein expression at 30 uM preincubated for 30 mins before LPS stimulation for 24 hrs by Western blot analysis. Format: functional, cell-based.
The subject of data set [6] is RAW264.7. The data set can be described thus: Anti-inflammatory activity in mouse RAW264.7 cells assessed as reduction in LPS-induced TNFalpha mRNA expression preincubated for 30 mins followed by LPS stimulation measured after 8 hrs by real-time qPCR method. The class given is functional, cell-based.
Data set [7] has as its system RAW264.7. The data set is described as follows: Anti-inflammatory activity in mouse RAW264.7 cells assessed as reduction in LPS-induced iNOS mRNA expression preincubated for 30 mins followed by LPS stimulation measured after 8 hrs by real-time qPCR method. Format: functional, cell-based.
For data set [8], the system named is RAW264.7. The data set is described as follows: Anti-inflammatory activity in mouse RAW264.7 cells assessed as reduction in LPS-induced IL6 mRNA expression preincubated for 30 mins followed by LPS stimulation measured after 8 hrs by real-time qPCR method. The class given is functional, cell-based.
Data set [9] has as its system RAW264.7. The data set can be described thus: Anti-inflammatory activity in mouse RAW264.7 cells assessed as reduction in LPS-induced COX2 mRNA expression preincubated for 30 mins followed by LPS stimulation measured after 8 hrs by real-time qPCR method. The class given is functional, cell-based.

The structures appear in SMILES notation. Activity calls are given as the source filed them. The calls are words filed in the database; no cut-off is given here.

Regarding `C=C/C=C/CCCCCCCC/C=C/C1=CC(C)OC1=O` (centres undefined), the Activity entry in the data set with RAW264.7 [1] and with RAW264.7 [3] was “Non-Toxic” in each case. Also, the IC50 with RAW264.7 [2] is over 30 µM.
In the case of `CCCCCCCCCCC/C=C1/C(=O)O[C@H](C)[C@H]1O`, the Activity result with RAW264.7 [1] and in the data set with RAW264.7 [3] was “Non-Toxic” throughout. In the data set with RAW264.7 [2], the IC50 came out at 2.9 µM.
Consider `C=CCCCCCCCC/C=C/C1=CC(C)OC1=O` (centres undefined), for which the Activity result in the data set with RAW264.7 [1] and in the data set on RAW264.7 [3] was “Non-Toxic” each time. For the same molecule, the IC50 with RAW264.7 [2] was over 30 µM.
With `C#CCCCCCCCCC/C=C1\C(=O)O[C@H](C)[C@H]1O`, the Activity entry with RAW264.7 [1] was “Non-Toxic”; with RAW264.7 [3], “Non-Toxic”; with RAW264.7 [4] it was “Dose-dependent effect”. The IC50 in the data set on RAW264.7 [2] was determined as 12.8 µM.
With `CCCCCCCCCCCC/C=C/C1=CC(C)OC1=O` (centres undefined), the Activity entry with RAW264.7 [1] and in the data set with RAW264.7 [3] was “Non-Toxic” each time. Also, the IC50 in the data set with RAW264.7 [2] was over 30 µM.
`CC1=C(O)C(=O)C=C2C1=CC=C1[C@@]2(C)CC[C@@]2(C)[C@@H]3C[C@](C)(C(=O)O)CC[C@]3(C)CC[C@]12C` [CELASTROL]: in the data set with RAW264.7 [2], the IC50 is 1 µM.
`C=CCCCCCCCCC/C=C1/C(=O)O[C@@H](C)[C@H]1O`: the Activity result in the data set with RAW264.7 [1] and with RAW264.7 [3] was “Non-Toxic” in each case. Also, in the data set with RAW264.7 [2], the half-inhibitory concentration (IC50) was 3 µM.
Turning to `C=CCCCCCCCCC/C=C1\C(=O)O[C@H](C)[C@H]1O`, the Activity result with RAW264.7 [1] is “Non-Toxic”; in the data set on RAW264.7 [3] it was “Non-Toxic”; in the data set with RAW264.7 [4] it was “Dose-dependent effect”. For the same molecule, in the data set with RAW264.7 [2], the IC50 turned out to be 4.5 µM.
As to `C#CCCCCCCCC/C=C/C1=CC(C)OC1=O` (centres undefined), the Activity result in the data set on RAW264.7 [1] and with RAW264.7 [3] was “Non-Toxic” in each case. The IC50 in the data set on RAW264.7 [2] is over 30 µM.
As to `CC/C=C/CCCCCCCCC/C=C1/C(=O)O[C@H](C)[C@H]1O`, the Activity entry with RAW264.7 [1] and in the data set on RAW264.7 [3] was “Non-Toxic” throughout. Also, the half-maximal inhibitory concentration (IC50) with RAW264.7 [2] worked out at 2.5 µM.
As to `C=C/C=C/CCCCCCCCC/C=C1/C(=O)O[C@H](C)[C@H]1O`, the Activity entry with RAW264.7 [1] is “Non-Toxic”; in the data set on RAW264.7 [3], “Non-Toxic”; with RAW264.7 [4], “Dose-dependent effect”. The IC50 with RAW264.7 [2] stood at 5.8 µM. Also, the result in the data set with RAW264.7 [5] was Active.
Turning to `C=CCCCCCCCC/C=C/[C@H]1C(=O)O[C@@H](C)[C@H]1O`, the Activity entry in the data set with RAW264.7 [1] and with RAW264.7 [3] was “Non-Toxic” in each case. Besides, in the data set on RAW264.7 [2], the IC50 was over 30 µM.
For `C=CCCCCCCCC/C=C/[C@H]1C(=O)O[C@H](C)[C@@H]1O`, the Activity result with RAW264.7 [1] and in the data set with RAW264.7 [3] was “Non-Toxic” throughout. In addition, the IC50 in the data set on RAW264.7 [2] is 14 µM.
`C#CCCCCCCCC/C=C/[C@H]1C(=O)O[C@@H](C)[C@H]1O` [LITSEALACTONE B]: the Activity result with RAW264.7 [1] and in the data set on RAW264.7 [3] was “Non-Toxic” in each case. Also, in the data set with RAW264.7 [2], the IC50 is over 30 µM.
On to `C=CCCCCCCCCC/C=C1/C(=O)O[C@H](C)[C@H]1O`, for which the Activity entry in the data set with RAW264.7 [6] was “Dose-dependent effect”; with RAW264.7 [1], “Non-Toxic”; in the data set on RAW264.7 [7] it was “Dose-dependent effect”; in the data set with RAW264.7 [3], “Non-Toxic”; in the data set on RAW264.7 [8], “Dose-dependent effect”; in the data set on RAW264.7 [9], “Dose-dependent effect”. Further, in the data set on RAW264.7 [4], the Activity result was “Dose-dependent effect”. For the same molecule, in the data set with RAW264.7 [2], the IC50 amounted to 3.1 µM. In addition, the result in the data set with RAW264.7 [5] was Active.
`CCCCC/C=C\C/C=C\CCCCC/C=C1/C(=O)O[C@H](C)[C@H]1O`: the Activity entry in the data set with RAW264.7 [1] was “Non-Toxic”; with RAW264.7 [3], “Non-Toxic”; with RAW264.7 [4], “Dose-dependent effect”. In the data set on RAW264.7 [2], the IC50 was found to be 4.4 µM. In the data set on RAW264.7 [5], the outcome was Active.
Turning to `CCCCC/C=C/C/C=C/CCCC/C=C/C1=CC(C)OC1=O` (centres undefined), the Activity entry in the data set on RAW264.7 [1] and in the data set on RAW264.7 [3] was “Non-Toxic” each time. Also, the IC50 in the data set on RAW264.7 [2] is over 30 µM.
Take `CCCCCCCCCC/C=C/C1=CC(C)OC1=O` (centres undefined): the Activity entry in the data set on RAW264.7 [1] and with RAW264.7 [3] was “Non-Toxic” throughout. In addition, the IC50 in the data set with RAW264.7 [2] is over 30 µM.
Regarding `C#CCCCCCCCCC/C=C1/C(=O)O[C@H](C)[C@H]1O`, the Activity result is “Non-Toxic” in the data set on RAW264.7 [1], “Non-Toxic” in the data set on RAW264.7 [3] and “Dose-dependent effect” in the data set with RAW264.7 [4]. Moreover, the IC50 in the data set on RAW264.7 [2] was found to be 6.2 µM. In the data set on RAW264.7 [5], the result was Active.
